Data: patent US20180289008A1, “METHODS FOR WILDFIRE CONTROL, INVASIVE PLANT CONTROL, AND RESIDUAL CONTROL OF INVASIVE PLANTS” (priority 2017, published 2018)

How the values were obtained:
[1] = system: Dalmatian toadflax (Linaria dalmatica); experiment: Herbicide efficacy field trial, visual percent control of Dalmatian toadflax; format: in vivo; details: 4 YAT
Protocol: The present inventors conducted a field trial to evaluate the effectiveness of herbicides for long-term downy brome and Dalmatian toadflax control. The experiment was conducted at one site. The results provide the framework for the subsequent greenhouse experiment. (See below). The field experiment was located in Longmont, Colo. (lat 40° 14′57.53″N, long 105° 12′35.46″W) on Rabbit Mountain Open Space, the easternmost point of the foothills in Boulder County. The canopy cover of actively growing downy brome and Dalmatian toadflax at peak standing crop was approximately 85% and 30%, respectively. Before herbicide application (June and August), perennial grasses (<10% canopy cover) included primarily western wheatgrass (Pascopyrum smithii (Rydb.) A. Love), and native forbs and sub-shrubs (˜20% canopy cover) included Louisiana sage (Artemisia ludoviciana Nutt.), fringed sage (Artemisia frigida Willd.), common sunflower (Helianthus annuus L.), sulphur-flower buckwheat (Eriogonum umbellatum Torr.), and hairy goldenaster (Heterotheca villosa (Pursh) Shinners). The soil at the study site was Baller sandy loam (loamy-skeletal, mixed, superactive, mesic Lithic Haplustolls), with 1.5% organic matter in the top 20 cm. The average elevation was 1,725 m (5,660 ft). Mean annual precipitation based on the 30-yr average was 363 mm and the mean annual temperature was 9.1° C. […]. A statewide-drought occurred and average total precipitation decreased 134 mm; however, the site received an additional 110 mm above the 30-yr average.
Herbicides were applied in the summer at two application timings; June, when Dalmatian toadflax was in the flowering growth stage, and August, during Dalmatian toadflax regrowth. These two application timings (June and August) were both before downy brome emergence (PRE). The 13 herbicide treatments (including a non-treated control) were applied to 3 by 9 m plots arranged in a randomized complete block design with four replications, and are listed in Table 1. […]
(§1) For the herbicide efficacy field experiment, repeated measures analysis of variance (ANOVA) was used to determine the effects of herbicide treatments on long-term Dalmatian toadflax and downy brome control. Percent control data were first analyzed in SAS 9.3 using Proc MIXED, with year after treatment defined as the repeated measure (SAS Institute 2010). […] Dalmatian toadflax and downy brome control response variables were analyzed separately, and main effects and interactions were tested at the α=0.05 significance level. […] To determine herbicide impacts on residual Dalmatian toadflax and downy brome control, the significant treatment-by-year interaction was evaluated using the Proc GLIMMIX method and the LINES statement. […]

[2] = system: Common mullein (Verbascum thapsus); experiment: Greenhouse pre-emergence dose-response bioassay (GR50); format: in vivo; details: pre-emergence
From the text: (§2) A greenhouse experiment was designed to determine if the extended control of Dalmatian toadflax and downy brome provided by indaziflam in the field was due to increased residual seedling control. This experiment was designed to compare indaziflam's pre-emergence efficacy to the currently recommended herbicides (aminocyclopyrachlor and aminopyralid) for annual, biennial, and perennial weed control in non-crop areas. […] This allows for direct comparisons between herbicides on an active ingredient basis for aminopyralid, aminocyclopyrachlor, and indaziflam.
(§3) For the greenhouse bioassay, seeds were planted at a constant depth of 0.5 cm in 13- by 9- by 6-cm plastic containers, filled with an Otero sandy clay loam field soil (Coarse-loamy, mixed (calcareous), mesic Aridic Ustorthents) with 3.9% OM and pH 7.7. Seeding densities were adjusted based on germinability to reach a target density of 40 plants/pot. Plants were maintained in a greenhouse with a 25/20° C. day/night temperature with natural light supplemented with high-intensity discharge lamps to give a 15-h photoperiod. Plants were sub-irrigated as needed and misted overhead daily to reduce soil crusting.
(§4) The greenhouse experiment was a completely randomized design with a factorial of seven herbicide rates and a non-treated control with three replicates per treatment. The experiments were conducted at two different times. A preliminary greenhouse study was conducted for each herbicide and species to determine a range of doses that would best fit a logistic regression. It is not unusual for both pre-emergence and post-emergence herbicides to provide control at lower than labeled rates, e.g., 0.5-560 g ai ha^−1 (aminocyclopyrachlor), 0.9-224 g ai ha^−1 (aminopyralid), and 0.05-11.7 g ai ha^−1 (indaziflam) in the greenhouse with ideal environmental conditions, so it was not surprising that herbicide doses for the regression analysis were much lower than recommended field use rates. Herbicides were applied pre-emergence using a Generation III research track sprayer (DeVries Manufacturing, Hollandale, Minn.) equipped with a TeeJet 8002 EVS flat-fan spray nozzle (TeeJet Spraying Systems Co., Wheaton, Ill.) at 187 L·ha-1 at 172 kPa.
(§5) Plants were harvested at the soil surface approximately 4 to 5 week-after-treatment (WAT) depending on the growth stage of each species. Weights were recorded after samples were dried for 5 days at 60° C. Percent dry weight reduction was calculated relative to the non-treated control plants for each treatment.
(§6) Data from the greenhouse dose-response experiment were first analyzed using the PROC MIXED method in SAS 9.3 with treatment as a fixed effect and experiment and replicate as random effects (SAS Institute 2010). Based on a non-significant homogeneity of variance (ANOVA) and experiment-by-herbicide rate interaction, results from the repeated experiments were pooled. The treatment effect was significant, therefore, nonlinear regression in Graphpad Prism 7.00 (GraphPad Software, La Jolla Calif. USA) was used to describe the response of the nine weed species to aminocyclopyrachlor, aminopyralid, and indaziflam. The herbicide concentrations resulting in 50% reduction in plant biomass (GR50) compared to the non-treated control were determined for each invasive weed species using four-parameter log-logistic regression. The equation used to regress herbicide concentration with percent reduction in plant dry biomass as compared to the non-treated control was:
(§7) where C and D represent the lower and upper limits of the dose-response curve, respectively, and b represents the slope of the best-fitting curve through the GR50 value. For curve fitting and GR50 estimation, the model was constrained to a maximum of 100 and minimum of 0. Mean separation of herbicide GR50 values were analyzed by Fisher's Protected LSD test at the 5% level of probability. […]

[3] = system: Common teasel (Dipsacus fullonum); experiment: as above; format: in vivo; details: for GR50 (herbicide dose resulting in 50% dry biomass reduction): pre-emergence
From the text: as §2, §3, §4, §5, §6, §7

[4] = system: Curly dock (Rumex crispus); experiment: as above; format: in vivo; details: pre-emergence
From the text: as §2, §3, §4, §5, §6, §7

[5] = system: Dalmatian toadflax (Linaria dalmatica); experiment: as above; format: in vivo; details: pre-emergence
From the text: as §2, §3, §4, §5, §6, §7

[6] = system: Diffuse knapweed (Centaurea diffusa); experiment: as above; format: in vivo; details: pre-emergence
From the text: as §2, §3, §4, §5, §6, §7

[7] = system: Halogeton (Halogeton glomeratus); experiment: as above; format: in vivo; details: pre-emergence
From the text: as §2, §3, §4, §5, §6, §7

[8] = system: Marestail (Conyza Canadensis); experiment: as above; format: in vivo; details: pre-emergence
From the text: as §2, §3, §4, §5, §6, §7

[9] = system: Musk thistle (Carduus nutans); experiment: as above; format: in vivo; details: pre-emergence
From the text: as §2, §3, §4, §5, §6, §7

[10] = system: downy brome (Bromus tectorum); experiment: as above; format: in vivo; details: pre-emergence
From the text: as §2, §3, §4, §5, §6, §7

[11] = pH 7; cited from earlier work
[12] = average; cited from earlier work
[13] = system: downy brome (Bromus tectorum); experiment: Herbicide efficacy field trial, visual percent control of downy brome; format: in vivo; details: 4 YAT
Protocol: The present inventors conducted a field trial to evaluate the effectiveness of herbicides for long-term downy brome and Dalmatian toadflax control. The experiment was conducted at one site. The results provide the framework for the subsequent greenhouse experiment. (See below). The field experiment was located in Longmont, Colo. (lat 40° 14′57.53″N, long 105° 12′35.46″W) on Rabbit Mountain Open Space, the easternmost point of the foothills in Boulder County. The canopy cover of actively growing downy brome and Dalmatian toadflax at peak standing crop was approximately 85% and 30%, respectively. […]
as §1

[14] = system: invasive winter annual grass (downy brome, feral rye, Japanese brome); experiment: Invasive winter annual grass field efficacy studies, biomass as percent of non-treated (Sites 1 and 2 combined); format: in vivo, Bromus tectorum, Secale cereale, Bromus japonicus; details: 1 YAT, EPRE timing, imazapic 123 g·ai·ha^−1
Protocol: In year 1, field experiments were conducted to compare the effectiveness of indaziflam and imazapic for long-term invasive winter annual grass control, and to evaluate the response of the native plant communities. The experiments were established at two sites on the Colorado Front Range dominated by invasive winter annual grasses. Site 1 (lat 40° 15′2″N, long 105° 12′56″W) was infested with equal amounts of downy brome and Japanese brome. Site 2 (lat 40° 43′23″N, long 104° 55′58″W) was infested with feral rye. These two sites were approximately 58 km apart. Site 1 was located on Rabbit Mountain Open Space (Boulder County). Site 2 was located on a Colorado Parks and Wildlife Area (Larimer County). Before herbicide application in July, visual estimates were made across the entire study area of percentage of living canopy cover for all species present at both sites.
Site 1 was characterized by ˜80-100% downy brome and Japanese brome canopy cover with a dense fine-fuel layer, e.g., thatch, (2 to 5 cm), and a scattered stand of co-occurring species (˜0-10% canopy cover, Table 4). […]
Biomass harvests and species richness evaluations were conducted in August (year 2 and year 3) to evaluate invasive winter annual grass control and response of co-occurring species. […] Additionally, at Site 1, species richness was calculated for each treatment as a simple estimate of biological diversity. […]

Compound	Dalmatian toadflax control ([1]; August application timing)	Dalmatian toadflax control ([1]; June application timing)	GR50 (herbicide dose resulting in 50% dry biomass reduction) [2]	GR50 (herbicide dose resulting in 50% dry biomass reduction) [3]	GR50 (herbicide dose resulting in 50% dry biomass reduction) [4]	GR50 (herbicide dose resulting in 50% dry biomass reduction) [5]	GR50 (herbicide dose resulting in 50% dry biomass reduction) [6]	GR50 (herbicide dose resulting in 50% dry biomass reduction) [7]	GR50 (herbicide dose resulting in 50% dry biomass reduction) [8]	GR50 (herbicide dose resulting in 50% dry biomass reduction) [9]	GR50 (herbicide dose resulting in 50% dry biomass reduction) [10]	Log Kow [11]	water solubility [12]	residual downy brome control [13]	invasive winter annual grass control [14]	times more active (lower GR50) compared to aminocyclopyrachlor [3]	times more active (lower GR50) compared to indaziflam [3]
Nc1nc(C2CC2)nc(C(=O)[O-])c1Cl.[K+] [Aminocyclopyrachlor, aminocyclopyrachlor]	55%	50%	3.05 b g ai ha^−1	6.89 c g ai ha^−1	21.3 b g ai ha^−1	1.16 b g ai ha^−1	6.20 c g ai ha^−1	1.04 b g ai ha^−1	2.09 c g ai ha^−1	1.25 b g ai ha^−1	56.4 b g ai ha^−1	−2.48	4,200 mg L-1				
Cc1cnc(C2=NC(=O)C(C)(C(C)C)N2)c(C(=O)O)c1 (stereo not drawn) [Imazapic, imazapic]												0.01		less than 25%	~41%		
Nc1cc(Cl)nc(C(=O)O)c1Cl [Aminopyralid, aminopyralid]			7.45 c g ai ha^−1	0.75 a g ai ha^−1	1.25 a g ai ha^−1	14.8 c g ai ha^−1	2.50 b g ai ha^−1	3.11 c g ai ha^−1	0.80 b g ai ha^−1	0.31 a g ai ha^−1	38.5 b g ai ha^−1	−2.87	207,000 mg L-1			9	2
Nc1c(Cl)c(Cl)nc(C(=O)O)c1Cl [Picloram, picloram]	64%	68%										1.18	200,000 mg L-1				
